Here are results for 21 compounds from patent US8546608B2, “Proteasome inhibitors and methods of using the same” (Cephalon, Inc., priority 2003, dated 2013).

Structures are written as SMILES. Where a name gives a salt, the structure may show the parent alone. Read-outs that look alike come from different tables or passages of the source. A value given as a limit tells only on which side of the number the result lay.

The target of test [1] is T1, 20S Human Erythrocyte Proteasome (HEP) (Homo sapiens, UniProt P20618+P28074).
T1 construct: 20S Human Erythrocyte Proteasome (HEP), purchased from Immatics Biotechnologies Inc; purchased Immatics Biotechnologies Inc., Tübingen, Germany; host or cells: human erythrocytes (natural source)
Nature of the test: Chymotrypsin-like activity of 20S Human Erythrocyte Proteasome (HEP), IC50 determination. To be noted: assay of Example C, inhibition of HEP. It is filed as biochemical. The method in brief:
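20S proteasome at 0.2 μg/mL (about 0.6 nM catalytic sites) in 20 mM Tris with 0.04% SDS, preincubated 15 min at 37° C with inhibitor before Suc-LLVY-AMC (100 μM final). AMC fluorescence read in the linear range; triplicates, IC50 from concentration series.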

For test [2], the target named is T2, proteasome in Molt-4 cells (human leukemia) (Homo sapiens, UniProt P20618+P28074).
T2 sequence (P28074 60-263): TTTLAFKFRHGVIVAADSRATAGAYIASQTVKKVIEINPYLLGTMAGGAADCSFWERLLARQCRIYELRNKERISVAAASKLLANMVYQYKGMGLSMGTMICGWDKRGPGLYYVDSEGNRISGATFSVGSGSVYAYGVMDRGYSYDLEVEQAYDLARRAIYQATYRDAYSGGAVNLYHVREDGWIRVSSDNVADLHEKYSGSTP
T2 sequence (P20618 29-241): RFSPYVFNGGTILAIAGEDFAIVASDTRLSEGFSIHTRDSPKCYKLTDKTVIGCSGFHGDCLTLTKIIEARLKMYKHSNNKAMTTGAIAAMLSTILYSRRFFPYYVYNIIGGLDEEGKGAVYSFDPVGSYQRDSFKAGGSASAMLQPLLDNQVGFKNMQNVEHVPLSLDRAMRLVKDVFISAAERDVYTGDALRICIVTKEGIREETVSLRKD
It is filed as cell-based. The method in brief:
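Intact Molt-4 cells (6×10^6 cells/mL) in HEPES-buffered saline were preincubated with inhibitor 15 min at 37 °C, then given cell-permeable MeOSuc-FLF-AFC at 25 μM final.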

Setting [3] is: assay of Example E, inhibition of MOLT4; read-out: MOLT4 (EC50).

The IC50 is the concentration needed to halve the response being measured. A word on the EC50: it is the concentration giving half of the maximal effect. In test [1], `CC(C)C[C@H](NC(=O)[C@H](CCCNC(=N)N[N+](=O)[O-])NC(=O)CSc1ncccn1)B(O)O` [E.2.54, Boronic acid, [(1R)-1-[[(2S)-5-[[imino(nitroamino)methyl]amino]-2-[[2-(pyrimidin-2-ylsulfanyl)acetyl]amino]-1-oxopentyl]amino]-3-methylbutyl]] came in with an IC50 of under 10 nM. The EC50 in test [2] (setting [3]) was over 10000 nM.
In test [1], `CC(C)C[C@H](NC(=O)[C@H](CC(N)=O)NC(=O)c1cnccn1)B1O[C@@H]2C[C@@H]3C[C@@H](C3(C)C)[C@]2(C)O1` [D.8.18, 2-Pyrazinecarboxamide, N-[(1S)-1-[[[(1R)-1-[(3aS,4S,6S,7aR)-hexahydro-3a,5,5-trimethyl-4,6-methano-1,3,2-benzodioxaborol-2-yl]-3-methylbutyl]amino]carbonyl]-2-carbamoylethyl]] had a half-inhibitory concentration (IC50) of under 100 nM. Also, the EC50 in test [2] (setting [3]) is 200 to 2000 nM.
Take `CC(C)C[C@H](NC(=O)[C@H](CCCNC(=N)N[N+](=O)[O-])NC(=O)C(C)c1ccccc1)B(O)O` (mixture of isomers) [D.7.4, Boronic acid, [(1R)-1-[[(2S)-5-[[imino(nitroamino)methyl]amino]-2[((2RS)-2-phenylpropanoyl)amino]-1-oxopentyl]amino]-3-methylbutyl]]: the IC50 in test [1] was under 10 nM. Further, the EC50 in test [2] (setting [3]) is over 10000 nM.
In test [1], `CCCCc1ccc(C(=O)N[C@@H](CC(N)=O)C(=O)N[C@@H](CC(C)C)B2O[C@@H]3C[C@@H]4C[C@@H](C4(C)C)[C@]3(C)O2)cc1` [D.8.20, 4-Butylbenzamide, N-[(1S)-1-[[[(1R)-1-[(3aS,4S,6S,7aR)-hexahydro-3a,5,5-trimethyl-4,6-methano-1,3,2-benzodioxaborol-2-yl]-3-methylbutyl]amino]carbonyl]-2-carbamoylethyl]] registered an IC50 of under 10 nM. Moreover, in test [2] (setting [3]), the EC50 is under 200 nM.
For `CC(C)C[C@H](NC(=O)[C@H](CCCNC(=N)N[N+](=O)[O-])NC(=O)COc1ccc(C(C)C)cc1)B(O)O` [D.7.5, Boronic acid, [(1R)-1-[[(2S)-5-[[imino(nitroamino)methyl]amino]-2-[(2-(4-isopropylphenoxy)acetyl)amino]-1-oxopentyl]amino]-3-methylbutyl]] the same measures were under 10 nM and 200 to 2000 nM.
As for `CC(C)C[C@H](NC(=O)[C@H](CCCNC(=N)N[N+](=O)[O-])NC(=O)CCCCCCCc1ccccc1)B1O[C@@H]2C[C@@H]3C[C@@H](C3(C)C)[C@]2(C)O1` [D.3.117, 8-Phenyl-octanamide,N-[(1S)-1-[[[(1R)-1-[(3aS,4S,6S,7aR)-hexahydro-3a,5,5-trimethyl-4,6-methano-1,3,2-benzodioxaborol-2-yl]-3-methylbutyl]amino]carbonyl]-4-[[imino(nitroamino)methyl]amino]butyl]], the half-maximal inhibitory concentration (IC50) in test [1] was under 10 nM. The EC50 in test [2] (setting [3]) is under 200 nM.
The compound `C/C(=C\c1ccccc1)C(=O)N[C@@H](CCCNC(=N)N[N+](=O)[O-])C(=O)N[C@@H](CC(C)C)B1O[C@@H]2C[C@@H]3C[C@@H](C3(C)C)[C@]2(C)O1` [D.3.26, (E)-2-Methyl-3-phenyl-acrylamide,N-[(1S)-1-[[[(1R)-1-[(3aS,4S,6S,7aR)-hexahydro-3a,5,5-trimethyl-4,6-methano-1,3,2-benzodioxaborol-2-yl]-3-methylbutyl]amino]carbonyl]-4-[[imino(nitroamino)methyl]amino]butyl]] had a half-inhibitory concentration (IC50) in test [1] of under 10 nM. In test [2] (setting [3]), the concentration giving a half-maximal response (EC50) was under 200 nM.
Compound `CCCCc1ccc(C(=O)N[C@@H](CNC(=O)Nc2ccccc2)C(=O)N[C@@H](CC(C)C)B(O)O)cc1` [E.5.19, Boronic acid, [(1R)-1-[[(2S)-3-(3-phenylureido)-2-(4-butylbenzoylamino)-1-oxopropyl]amino]-3-methylbutyl]] returned a 50% inhibitory concentration (IC50) in test [1] of under 10 nM. In addition, the concentration for a half-maximal effect (EC50) in test [2] (setting [3]) was under 200 nM.
Compound `CC(C)C[C@H](NC(=O)[C@H](CCCNC(=N)N[N+](=O)[O-])NC(=O)Cc1ccccc1I)B(O)O` [E.2.13, Boronic acid, [(1R)-1-[[(2S)-5-[[imino(nitroamino)methyl]amino]-2-[[2-(2-iodophenyl)acetyl]amino]-1-oxopentyl]amino]-3-methylbutyl]] had an IC50 in test [1] of under 10 nM. Moreover, in test [2] (setting [3]), the EC50 lay in the range of 2000 to 10000 nM.
The compound `COc1ccc(CCCC(=O)N[C@@H](CCCNC(=N)N[N+](=O)[O-])C(=O)N[C@@H](CC(C)C)B(O)O)cc1` [E.2.61, Boronic acid, [(1R)-1-[[(2S)-5-[[imino(nitroamino)methyl]amino]-2-[[4-(4-methoxyphenyl)-butanoyl]amino]-1-oxopentyl]amino]-3-methylbutyl]] had an IC50 in test [1] of under 10 nM. In test [2] (setting [3]), the EC50 fell in the range of 2000 to 10000 nM.
For `CCCCc1ccc(C(=O)N[C@H](C(=O)N[C@@H](CC(C)C)B(O)O)[C@@H](C)O)nc1` [E.4.2, Boronic acid, [(1R)-1-[[(2S,3R)-3-hydroxy-2-[(5-butyl-pyridine-2-carbonyl)amino]-1-oxobutyl]amino]-3-methylbutyl]] the same measures were under 100 nM and under 200 nM.
`CCCCCC(=O)NC[C@H](NC(=O)c1ccc(CCCC)cc1)C(=O)N[C@@H](CC(C)C)B1O[C@@H]2C[C@@H]3C[C@@H](C3(C)C)[C@]2(C)O1` [D.24.10, 4-butylbenzamide, N-[(1S)-1-[[[(1R)-1-[(3aS,4S,6S,7aR)-hexahydro-3a,5,5-trimethyl-4,6-methano-1,3,2-benzodioxaborol-2-yl]-3-methylbutyl]amino]carbonyl]-2-(hexanonylamino)ethyl]-] yielded a half-inhibitory concentration (IC50) in test [1] of under 10 nM. The concentration for a half-maximal effect (EC50) in test [2] (setting [3]) was under 200 nM.
In turn, `Cc1ccc(C)c(OCCCC(C)(C)C(=O)N[C@@H](CCCNC(=N)N[N+](=O)[O-])C(=O)N[C@@H](CC(C)C)B(O)O)c1` [D.7.17, Boronic acid, [(1R)-1-[[(2S)-5-[[imino(nitroamino)methyl]amino]-2-[[5-(2,5-dimethylphenoxy)-2,2-dimethylpentanoyl]amino]-1-oxopentyl]amino]-3-methylbutyl]] returned a 50% inhibitory concentration (IC50) in test [1] of under 10 nM. Moreover, the EC50 in test [2] (setting [3]) was in the range of 200 to 2000 nM.
The compound `CC(C)C[C@H](NC(=O)[C@H](CCCNC(=N)N[N+](=O)[O-])NC(=O)C(CCCCCCCCC#N)C1CCCC1)B(O)O` (mixture of isomers) [E.1.19, Boronic acid, [(1R)-1-[[(2S)-5-[[imino(nitroamino)methyl]amino]-2-[((RS)-10-cyano-2-cyclopentydecanoyl)amino]-1-oxopentyl]amino]-3-methylbutyl]] displayed a half-inhibitory concentration (IC50) in test [1] of under 10 nM. Besides, the EC50 in test [2] (setting [3]) is 200 to 2000 nM.
Compound `CC(C)C[C@H](NC(=O)[C@H](CCCNC(=N)N[N+](=O)[O-])NC(=O)CCCC(=O)c1ccccc1)B(O)O` [D.7.6, Boronic acid, [(1R)-1-[[(2S)-5-[[imino(nitroamino)methyl]amino]-2-[(5-oxo-5-phenylpentanoyl)amino]-1-oxopentyl]amino]-3-methylbutyl]] registered a concentration for half-maximal inhibition (IC50) in test [1] of under 10 nM. The EC50 in test [2] (setting [3]) is over 10000 nM.
The corresponding values for `CC(C)C[C@H](NC(=O)[C@H](CCCNC(=N)N[N+](=O)[O-])NC(=O)CCCCC1CCCCC1)B1O[C@@H]2C[C@@H]3C[C@@H](C3(C)C)[C@]2(C)O1` [D.3.73] are under 10 nM and under 200 nM.
On to `CCc1ccc(OCC(=O)N[C@@H](CCCNC(=N)N[N+](=O)[O-])C(=O)N[C@@H](CC(C)C)B2O[C@@H]3C[C@@H]4C[C@@H](C4(C)C)[C@]3(C)O2)cc1` [D.3.55], for which the concentration for half-maximal inhibition (IC50) in test [1] is under 10 nM. Besides, the EC50 in test [2] (setting [3]) is under 200 nM.
The compound `CC(=O)CCCC(=O)N[C@@H](CCCNC(=N)N[N+](=O)[O-])C(=O)N[C@@H](CC(C)C)B(O)O` [E.2.80, Boronic acid, [(1R)-1-[[(2S)-5-[[imino(nitroamino)methyl]amino]-2-[(5-oxohexanoyl)amino]-1-oxopentyl]amino]-3-methylbutyl]] gave an IC50 in test [1] of under 100 nM. Moreover, in test [2] (setting [3]), the EC50 lay within 2000 to 10000 nM.
Consider `CCOc1ccc(C(=O)N[C@@H](CCCNC(=N)N[N+](=O)[O-])C(=O)N[C@@H](CC(C)C)B(O)O)cc1` [D.7.31, Boronic acid, [(1R)-1-[[(2S)-5-[[imino(nitroamino)methyl]amino]-2-[(4-ethoxybenzoyl)amino]-1-oxopentyl]amino]-3-methylbutyl]], for which the IC50 in test [1] is under 10 nM. Besides, the concentration giving a half-maximal response (EC50) in test [2] (setting [3]) is over 10000 nM.
As to `CC(C)C[C@H](NC(=O)[C@H](CCCNC(=N)N[N+](=O)[O-])NC(=O)C1CCC(C(C)(C)C)CC1)B(O)O` (stereo partly drawn) [E.2.5, Boronic acid, [(1R)-1-[[(2S)-5-[[imino(nitroamino)methyl]amino]-2-[[4-(1,1-Dimethylethyl)cyclohexanecarbonyl]amino]-1-oxopentyl]amino]-3-methylbutyl]], the half-inhibitory concentration (IC50) in test [1] is under 10 nM. Moreover, in test [2] (setting [3]), the concentration giving a half-maximal response (EC50) fell in the range of 2000 to 10000 nM.
In test [1], `CCCCCCCCS(=O)(=O)N[C@@H](CCCNC(=N)N[N+](=O)[O-])C(=O)N[C@@H](CC(C)C)B(O)O` [E.1.15, Boronic acid, [(1R)-1-[[(2S)-5-[[imino(nitroamino)methyl]amino]-2-[(1-octanesulfonyl)amino]-1-oxopentyl]amino]-3-methylbutyl], HCl salt] had a half-inhibitory concentration (IC50) of under 10 nM. Moreover, the EC50 in test [2] (read-out: MOLT4 (EC50); assay of Example E, inhibition of MOLT4) was 200 to 2000 nM.
